These results are taken from patent US8198215B2, “Methods for protecting seeds” (Sygenta Crop Protection LLC, priority 2005, dated 2012).

What all share (format): in vivo
Test [1] relates to Gäumannomyces graminis. Put plainly: Example B-1: activity against Gäumannomyces graminis on wheat, seed treatment. To be noted: winterwheat seed treatment; for % root browning: inoculated field soil, 5 weeks at 17° C., untreated 50; for Control: relative to untreated. The protocol: After application of the active ingredient formulated as a flowable concentrate for seed treatment onto seeds of winterwheat the seeds are sown in trays filled with field soil. The field soil has been inoculated artificially before sowing with Gäumannomyces graminis by thoroughly mixing mycelium and soil. The trial is kept in a growth room for 5 weeks at 17° C. and a 14 hr light period. The following assessments are made: % root browning. Each number is determined for 30 seeds per treatment (3 replicates a 10 seeds).

For test [2], the system named is Ustilago nuda. Put plainly: Example B-4: activity against Ustilago nuda on barley, seed treatment. As to conditions: U. nuda-infected winterbarley seeds; for % Control: relative to untreated; for % infected heads: untreated 23.1. Here is the method:
(§1) After application of the active ingredient formulated as a flowable concentrate for seed treatment onto U. nuda-infected seeds of winterbarley the seeds are sown in trays filled with field soil. The trays are transferred to a growth room and kept there for 2 days at 20° C. and then for 2 weeks at 2° C. After this period the trial is transferred to a greenhouse where a temperature of 15° C. and a 14 hr light period is provided until flowering. The following assessments are made: number of infected heads. Each number is determined for 200 seeds per treatment (2 replicates a 100 seeds).

Test [3] relates to Microdochium nivale. Put plainly: Example B-2: activity against Microdochium nivale on wheat, seed treatment. As to conditions: M. nivale-infected winterwheat seeds, 10 g/100 kg seed. Here is the method:
After application of the active ingredient formulated as a flowable concentrate for seed treatment onto M. nivale-infected seeds of winterwheat the seeds are sown in trays filled with planting soil. The trial is kept for 4 weeks in a growth room at 4° C. and darkness. Then the temperature is increased to 15° C. and a 12 hr light period is provided. After development of the primary leaf plants are kept at 10° C. and high humidity until the trial is finished. The following assessments are made: number of infected plants. Each number is determined for 100 seeds per treatment (2 replicates a 50 seeds).

Test [4] relates to Ustilago nuda. Put plainly: Example B-5: comparison test with prior art compound B, activity against Ustilago nuda on barley. To be noted: 10 g active ingredient per 100 kg seed; for % Control / % infected heads: barley seed treatment; for % Control: relative to untreated; for % infected heads: untreated 13. The protocol: as §1, with “seeds). The activity against Ustilago nuda on barley of the racemic compound of formula Ia according to the invention was compared with racemic compound B, which is described as compound no. 2.69 on pages 7, table 2, and page 16, table 7, of WO 03/074491. The method used to compare the activity is described under example B-4 above.” for “seeds).”

Test [5] concerns Pyrenophora graminea. Put plainly: Example B-3: activity against Pyrenophora graminea on barley, seed treatment. As to conditions: P. graminea-infected winterbarley seeds, 10 g/100 kg seed. The protocol:
After application of the active ingredient formulated as a flowable concentrate for seed treatment onto P. graminea-infected seeds of winterbarley the seeds are sown in trays filled with field soil. The trays are kept in a growth room for 3 weeks at 4° C. After this period the trial is transferred to a greenhouse where a temperature of 12° C. and a 14 hr light period is provided. The following assessments are made: number of infected plants. Each number is determined for 200 seeds per treatment (2 replicates a 100 seeds).

The test system of test [6] is Ustilago nuda. Put plainly: Example B-6: comparison test with prior art compound C, activity against Ustilago nuda on barley. To be noted: 10 g active ingredient per 100 kg seed; for % Control / % infected heads: barley seed treatment; for % Control: relative to untreated; for % infected heads: untreated 13. The protocol:
as §1, with “seeds). The activity against Ustilago nuda on barley of the racemic compound of formula Ia according to the invention was compared with racemic compound C (trans/cis-ratio: 10:1), which is described as compound no. 2.40 on pages 6 and 7, table 2, of WO 03/074491. The method used to compare the activity is described under example B-4 above.” for “seeds).”

In the case of `Cn1cc(C(=O)Nc2ccccc2[C@@H]2C[C@H]2C2CC2)c(C(F)F)n1` (racemic) [Racemic compound of formula Ia], the “% root browning” value in test [1] (10 g/100 kg seed) amounted to 28%; in test [1] (33 g/100 kg seed) it was 20%. Further, the Control in test [1] (10 g/100 kg seed) is 44; in test [1] (33 g/100 kg seed), 60; in test [3] (relative to untreated) it was 86.8; in test [5] (relative to untreated), 98.1. Moreover, the “% Control” value in test [2] (2.5 g/100 kg seed), in test [2] (5 g/100 kg seed), in test [4] and in test [6] was 100% each time. In addition, the “% infected heads” value in test [2] (2.5 g/100 kg seed), in test [2] (5 g/100 kg seed), in test [4] and in test [6] was 0% throughout. For the same compound, the “% infected plants” value in test [3] (untreated 38) is listed as 5%; in test [5] (untreated 54) it was 1%. The “fungicidal action against Ustilago nuda on barley compared with racemic compound B” value in test [4] is reported as “substantially better fungicidal action”. For the same compound, the “fungicidal action against Ustilago nuda on barley compared with racemic compound C” value in test [6] was “substantially better fungicidal action”.
In the case of `Cn1cc(C(=O)Nc2ccccc2C2CC2C2CCCC2)c(C(F)F)n1` (racemic) [Racemic compound C, reference compound], in test [6], the “% Control” value is listed as 11% and the “% infected heads” value was found to be 11.6%.
On to `Cn1cc(C(=O)Nc2ccccc2[C@@H]2C[C@H]2c2ccc(Cl)cc2)c(C(F)F)n1` (racemic) [Racemic compound B, reference compound], for which, in test [4], the “% Control” value is 9% and the “% infected heads” value amounted to 11.9%.
